PubChem BioAssay (NCI)
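Assay format: 96-well plates, 48-hour exposure. GI50 marks 50% less growth. TGI is the concentration that stops growth completely.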

Columns and labels:
Test in all cases: NCI anticancer screen, dose series, 48 h
DU-145 prostate = tested on: DU-145 prostate
UACC-257 melanoma = tested on: UACC-257 melanoma
SK-MEL-5 melanoma = tested on: SK-MEL-5 melanoma
SR leukemia = tested on: SR leukemia
A498 renal = tested on: A498 renal
SK-OV-3 ovarian = tested on: SK-OV-3 ovarian
HCT-15 colon = tested on: HCT-15 colon
MOLT-4 leukemia = tested on: MOLT-4 leukemia
M14 melanoma = tested on: M14 melanoma
BT-549 breast = tested on: BT-549 breast
KM12 colon = tested on: KM12 colon
HT29 colon = tested on: HT29 colon
SNB-75 CNS = tested on: SNB-75 CNS
EKVX NSCLC = tested on: EKVX NSCLC
NCI-H23 lung = tested on: NCI-H23 lung
PC-3 prostate = tested on: PC-3 prostate
RXF 393 renal = tested on: RXF 393 renal
RPMI-8226 leukemia = tested on: RPMI-8226 leukemia
UACC-62 melanoma = tested on: UACC-62 melanoma
A549 NSCLC = tested on: A549 NSCLC
SN12C renal = tested on: SN12C renal
SW-620 colon = tested on: SW-620 colon
NCI-H460 lung = tested on: NCI-H460 lung
OVCAR-5 ovarian = tested on: OVCAR-5 ovarian
K-562 leukemia = tested on: K-562 leukemia
HS 578T breast = tested on: HS 578T breast
UO-31 renal = tested on: UO-31 renal
HCT-116 colon = tested on: HCT-116 colon
SF-539 CNS = tested on: SF-539 CNS
OVCAR-8 ovarian = tested on: OVCAR-8 ovarian
MCF7 breast = tested on: MCF7 breast
TK-10 renal = tested on: TK-10 renal
SK-MEL-28 melanoma = tested on: SK-MEL-28 melanoma
MDA-MB-435 = tested on: MDA-MB-435
NCI-H226 lung = tested on: NCI-H226 lung
MDA-MB-231 breast = tested on: MDA-MB-231 breast
CAKI-1 renal = tested on: CAKI-1 renal
SF-295 CNS = tested on: SF-295 CNS
SF-268 CNS = tested on: SF-268 CNS
OVCAR-4 ovarian = tested on: OVCAR-4 ovarian
HOP-92 NSCLC = tested on: HOP-92 NSCLC
U251 CNS = tested on: U251 CNS
LOX IMVI melanoma = tested on: LOX IMVI melanoma
OVCAR-3 ovarian = tested on: OVCAR-3 ovarian
ACHN renal = tested on: ACHN renal
NCI/ADR-RES ovarian = tested on: NCI/ADR-RES ovarian
IGROV1 ovarian = tested on: IGROV1 ovarian
COLO 205 colon = tested on: COLO 205 colon
SK-MEL-2 melanoma = tested on: SK-MEL-2 melanoma
NCI-H522 lung = tested on: NCI-H522 lung
HOP-62 NSCLC = tested on: HOP-62 NSCLC
SNB-19 CNS = tested on: SNB-19 CNS
HL-60(TB) leukemia = tested on: HL-60(TB) leukemia
CCRF-CEM leukemia = tested on: CCRF-CEM leukemia
HCC-2998 colon = tested on: HCC-2998 colon
T-47D breast = tested on: T-47D breast
786-0 renal = tested on: 786-0 renal

In the case of `N=C(N)c1ccc(-c2ccc(-c3ccc(Cl)cc3)s2)s1`, the GI50 (DU-145 prostate) is reported as 1.62 µM, the TGI (DU-145 prostate) is reported as 2.98 µM and the GI50 (UACC-257 melanoma) is reported as 2.78 µM. It also gave a TGI (UACC-257 melanoma) of 4.9 µM, a GI50 (SK-MEL-5 melanoma) of 3.16 µM and a TGI (SK-MEL-5 melanoma) of 8.66 µM. For the same compound, the GI50 (SR leukemia) was 0.322 µM, the TGI (SR leukemia) was over 100 µM and the GI50 (A498 renal) was 13 µM. It also gave a TGI (A498 renal) of 45.3 µM, a GI50 (SK-OV-3 ovarian) of 1.7 µM and a TGI (SK-OV-3 ovarian) of 3.15 µM.
Work on `Nc1cc(N)c2nc(-c3ccccc3)c(Sc3ccc(F)cc3)nc2c1` yielded a GI50 (HCT-15 colon) of 13.4 µM, a TGI (HCT-15 colon) of 27.4 µM and a GI50 (MOLT-4 leukemia) of over 100 µM. The TGI (MOLT-4 leukemia) was over 100 µM, the GI50 (M14 melanoma) was 15.9 µM and the TGI (M14 melanoma) was 30.8 µM. It also gave a GI50 (BT-549 breast) of 22 µM, a TGI (BT-549 breast) of 44.1 µM and a GI50 (KM12 colon) of 20.8 µM. It also gave a TGI (KM12 colon) of 48.5 µM, a GI50 (HT29 colon) of 17.8 µM and a TGI (HT29 colon) of 45.9 µM. For the same compound, the GI50 (SNB-75 CNS) was 21.1 µM, the TGI (SNB-75 CNS) was 47.8 µM and the GI50 (EKVX NSCLC) was 20.5 µM. It also gave a TGI (EKVX NSCLC) of 41.2 µM, a GI50 (NCI-H23 lung) of 19 µM and a TGI (NCI-H23 lung) of 39.4 µM. For the same compound, the GI50 (PC-3 prostate) was 29.4 µM, the TGI (PC-3 prostate) was over 100 µM and the GI50 (DU-145 prostate) was 19.8 µM. It also gave a TGI (DU-145 prostate) of 37.7 µM, a GI50 (RXF 393 renal) of 13.3 µM and a TGI (RXF 393 renal) of 29.3 µM. The GI50 (RPMI-8226 leukemia) was 28.3 µM, the TGI (RPMI-8226 leukemia) was 81.5 µM and the GI50 (UACC-62 melanoma) was 16.7 µM. The TGI (UACC-62 melanoma) was 31.8 µM, the GI50 (A549 NSCLC) was 13.5 µM and the TGI (A549 NSCLC) was 30.9 µM. For the same compound, the GI50 (SN12C renal) was 17.6 µM, the TGI (SN12C renal) was 35.4 µM and the GI50 (SW-620 colon) was 22.8 µM. For the same compound, the TGI (SW-620 colon) was 49.6 µM, the GI50 (NCI-H460 lung) was 21.7 µM and the TGI (NCI-H460 lung) was 65.8 µM. It also gave a GI50 (OVCAR-5 ovarian) of 19 µM, a TGI (OVCAR-5 ovarian) of 46.1 µM and a GI50 (K-562 leukemia) of 39.6 µM. It also gave a TGI (K-562 leukemia) of over 100 µM, a GI50 (HS 578T breast) of 27 µM and a TGI (HS 578T breast) of 62 µM. For the same compound, the GI50 (UO-31 renal) was 32 µM, the TGI (UO-31 renal) was over 100 µM and the GI50 (HCT-116 colon) was 14.7 µM. For the same compound, the TGI (HCT-116 colon) was 28.3 µM, the GI50 (SF-539 CNS) was 21.3 µM and the TGI (SF-539 CNS) was 40 µM. For the same compound, the GI50 (OVCAR-8 ovarian) was 16.7 µM, the TGI (OVCAR-8 ovarian) was 34.9 µM and the GI50 (MCF7 breast) was 20 µM. The TGI (MCF7 breast) was 62.5 µM, the GI50 (TK-10 renal) was 17.4 µM and the TGI (TK-10 renal) was 42.6 µM. It also gave a GI50 (SK-MEL-28 melanoma) of 23.4 µM, a TGI (SK-MEL-28 melanoma) of 53.4 µM and a GI50 (SK-MEL-5 melanoma) of 15.6 µM. The TGI (SK-MEL-5 melanoma) was 33.4 µM, the GI50 (MDA-MB-435) was 16.3 µM and the TGI (MDA-MB-435) was 32.9 µM. It also gave a GI50 (NCI-H226 lung) of 19 µM, a TGI (NCI-H226 lung) of 46.4 µM and a GI50 (MDA-MB-231 breast) of 17.5 µM. The TGI (MDA-MB-231 breast) was 38 µM, the GI50 (SR leukemia) was 35.2 µM and the TGI (SR leukemia) was over 100 µM. For the same compound, the GI50 (CAKI-1 renal) was 18.1 µM, the TGI (CAKI-1 renal) was 36.6 µM and the GI50 (SF-295 CNS) was 13.9 µM. For the same compound, the TGI (SF-295 CNS) was 29.9 µM, the GI50 (SF-268 CNS) was 17.6 µM and the TGI (SF-268 CNS) was 38.9 µM. For the same compound, the GI50 (OVCAR-4 ovarian) was 22.9 µM, the TGI (OVCAR-4 ovarian) was 55.9 µM and the GI50 (HOP-92 NSCLC) was 22.9 µM. It also gave a TGI (HOP-92 NSCLC) of 54.8 µM, a GI50 (U251 CNS) of 16.4 µM and a TGI (U251 CNS) of 31.7 µM. It also gave a GI50 (LOX IMVI melanoma) of 22.7 µM, a TGI (LOX IMVI melanoma) of 41.2 µM and a GI50 (OVCAR-3 ovarian) of 16.3 µM. It also gave a TGI (OVCAR-3 ovarian) of 33.6 µM, a GI50 (ACHN renal) of 14.2 µM and a TGI (ACHN renal) of 27.7 µM. For the same compound, the GI50 (A498 renal) was 27.5 µM, the TGI (A498 renal) was 46 µM and the GI50 (NCI/ADR-RES ovarian) was 16.6 µM. The TGI (NCI/ADR-RES ovarian) was 34.7 µM, the GI50 (IGROV1 ovarian) was 25 µM and the TGI (IGROV1 ovarian) was over 100 µM. It also gave a GI50 (COLO 205 colon) of 22.1 µM, a TGI (COLO 205 colon) of 47.9 µM and a GI50 (SK-MEL-2 melanoma) of 38.4 µM. For the same compound, the TGI (SK-MEL-2 melanoma) was over 100 µM, the GI50 (NCI-H522 lung) was over 100 µM and the TGI (NCI-H522 lung) was over 100 µM. The GI50 (HOP-62 NSCLC) was 16.6 µM, the TGI (HOP-62 NSCLC) was 34.3 µM and the GI50 (SNB-19 CNS) was 20 µM. For the same compound, the TGI (SNB-19 CNS) was 41.7 µM, the GI50 (HL-60(TB) leukemia) was 39.3 µM and the TGI (HL-60(TB) leukemia) was over 100 µM. It also gave a GI50 (SK-OV-3 ovarian) of 15.7 µM and a TGI (SK-OV-3 ovarian) of 31.6 µM.
For `COc1ccc2[nH]c3c(C)c4ccnc(NCCCN(C)CCCNC(=O)NCCCN(C)CCCNc5nccc6c(C)c7[nH]c8ccc(OC)cc8c7c(C)c56)c4c(C)c3c2c1`, the TGI (CCRF-CEM leukemia) was 6.01 µM, the TGI (HCC-2998 colon) was 1.13 µM and the TGI (HCT-15 colon) was over 17.6 µM. The TGI (MOLT-4 leukemia) was over 12.4 µM, the TGI (M14 melanoma) was 1.33 µM and the TGI (BT-549 breast) was 4.99 µM. The TGI (KM12 colon) was over 10.1 µM, the TGI (HT29 colon) was 1.19 µM and the TGI (SNB-75 CNS) was 1.56 µM. For the same compound, the TGI (EKVX NSCLC) was 2.56 µM, the TGI (NCI-H23 lung) was over 19 µM and the TGI (PC-3 prostate) was 2.79 µM. For the same compound, the TGI (DU-145 prostate) was over 10.9 µM, the TGI (RXF 393 renal) was 1.26 µM and the TGI (RPMI-8226 leukemia) was over 14.5 µM. It also gave a TGI (UACC-62 melanoma) of over 11.6 µM, a TGI (SN12C renal) of 2.91 µM and a TGI (SW-620 colon) of 1.3 µM. It also gave a TGI (NCI-H460 lung) of 1.34 µM, a TGI (OVCAR-5 ovarian) of 4.13 µM and a TGI (UACC-257 melanoma) of over 14.3 µM. It also gave a TGI (K-562 leukemia) of over 50 µM, a TGI (T-47D breast) of 2.29 µM and a TGI (HS 578T breast) of over 50 µM. The TGI (UO-31 renal) was over 16.9 µM, the TGI (HCT-116 colon) was 5.48 µM and the TGI (SF-539 CNS) was 1.18 µM. It also gave a TGI (TK-10 renal) of over 50 µM, a TGI (SK-MEL-28 melanoma) of over 15.5 µM and a TGI (MDA-MB-435) of 1.24 µM. The TGI (MDA-MB-231 breast) was over 50 µM, the TGI (CAKI-1 renal) was 3.34 µM and the TGI (SF-268 CNS) was 3.25 µM. For the same compound, the TGI (OVCAR-4 ovarian) was 7.83 µM, the TGI (HOP-92 NSCLC) was 3.93 µM and the TGI (OVCAR-3 ovarian) was 8.29 µM. It also gave a TGI (ACHN renal) of 2.8 µM, a TGI (A498 renal) of 5 µM and a TGI (NCI/ADR-RES ovarian) of over 50 µM. The TGI (IGROV1 ovarian) was 2.05 µM, the TGI (786-0 renal) was 1.2 µM and the TGI (COLO 205 colon) was 0.858 µM. It also gave a TGI (SK-MEL-2 melanoma) of 4.07 µM, a TGI (HOP-62 NSCLC) of 2.11 µM and a TGI (SNB-19 CNS) of 2.13 µM. It also gave a TGI (HL-60(TB) leukemia) of 1.2 µM and a TGI (SK-OV-3 ovarian) of over 18.4 µM.
